Results as given in patent EP0522944A2, “Use of 3-(3-pyridinyl)-1H,3H-pyrrolo(1,2-c)thiazole-7-carboxamide for the treatment of retroviral infections” (RHONE-POULENC RORER S.A., priority 1991, dated 1993).

Tests used:
Format in all cases: cell-based
[1] = system: virus HIV-1; assay: Reverse transcriptase activity as indicator of viral production in chronically HIV-1 infected U1 cells stimulated with TNFa or GM-CSF + IL-6 (first series)
Excerpt: Les effets du (+) (pyridyl-3)-3 1H,3H-pyrrolo[1,2-c] thiazolecarboxamide-7 sur l'induction du virus HIV-1 ont été étudiés sur des lignées cellulaires chroniquement infectées.
(§1) On utilise des lignées cellulaires U1 obtenues après infection de la lignée promonocytaire, U937, par le virus HIV-1 et sélectionnée le selon la capacité à augmenter la production virale en réponse au Phorbol My- ristate Acétate (PMA), au TNF et à d'autres médiateurs [Folks et al., Science, 238, 800 (1987)]. L'activité de la reverse transcriptase est utilisée comme un indicateur de la production virale. On analyse ainsi l'effet de concentrations croissantes du produit à étudier sur des lignées cellulaires stimulées.
(§2) Les cultures cellulaires sont prélévées en phase de croissance exponantielle et remises en culture à raison d'une concentration finale de 2x105 cellules/ml, en présence de différentes concentrations du produit à étudier. 30 minutes après, l'ensemble des cultures est additionné de TNFa ou de GM-CSF (Granulocyte Macrophage Colony Stimulating Factor) plus 11-6 (Interleukine-6). Chaque essai est fait en double, excepté les contrôles qui sont faits en quadruple. Chaque jour suivant, une fraction de surnageant des cultures est prélevée, et congelée en vue de la mesure de la reverse transcriptase. Les cellules sont nourries si nécessaire, avec du milieu frais ne contenant ni produit à étudier, ni activateur.
(§3) La mesure de l'activité de la reverse transcriptase est faite par les techniques connues, en double exemplaire [Strebel et al., Nature, 328, 728 (1987)].
Le (+) (pyridyl-3)-3 1 H,3H-pyrrolo[1,2-c]thiazole carboxamide-7 est étudié aux concentrations de 100, 10, 1 et 0,1 µM.
Le TNFa est additionné à raison de 100, 10 ou 1 Unités/ml. Le GM-CSF + 11-6 est additionné à raison de 100 U/mi. Certains contrôles ne recoivent pas l'activateur. D'autres contrôles ne reçoivent pas le produit à étudier. D'autres ne reçoivent ni le produit ni l'activateur.

[2] = system: virus HIV-1; assay: Duration of action: pretreatment of U1 cells with the product before stimulation by TNF, PMA or GM-CSF + IL-6, reverse transcriptase production (second series)
Excerpt: as §1
as §2, with “30 minutes après, l'ensemble des cultures est additionné de TNFa ou de GM-CSF (Granulocyte Macrophage Colony Stimulating Factor) plus 11-6 (Interleukine-6).” left out
as §3
Dans une seconde série d'essais, la durée d'action du (+) (pyridyl-3)-3 1H,3H-pyrrolo[1,2-c]thiazolecarboxamide-7 a été testée.

[3] = system: cellules U1; assay: Viability of the U1 cells in presence of the product; details: whatever the concentration used (0,1 to 100 µM)
Method: as §2

NC(=O)c1ccn2c1CSC2c1cccnc1 (single isomer, unassigned; (+)) [produit, (+) (pyridyl-3)-3 1H,3H-pyrrolo[1,2-c]thiazole carboxamide-7]
inhibition at 100 µM ([1]; Human immunodeficiency virus 1, 72 h, U1 cells, 100 Unités/ml TNFa, day 3, product 10-^4M, read-out: diminution de l'activité de la reverse transcriptase): 84%
inhibition at 10 µM ([1]; Human immunodeficiency virus 1, 72 h, U1 cells, 100 Unités/ml TNFa, day 3, product 10^-5M, read-out: diminution de l'activité de la reverse transcriptase): 50%
diminution de la production virale ([1]; U1 cells treated with TNFa): significative et dose-dépendante
action inhibitrice du HIV-1 dans les cellules U1 ([1]; stimulated by GM-CSF + II-6): significative
Production de Reverse Transcriptase Coups par minute (cpm) ([2]; Tableau I, U1 cells + product 100µM, no stimulation, contact time 0,5 h): <100 cpm
Production de Reverse Transcriptase Coups par minute (cpm) ([2]; Tableau I, U1 cells + product 100µM, no stimulation, contact time 2 h): <100 cpm
Production de Reverse Transcriptase Coups par minute (cpm) ([2]; Tableau I, U1 cells + product 100µM, no stimulation, contact time 7 h): <100 cpm
Production de Reverse Transcriptase Coups par minute (cpm) ([2]; Tableau I, U1 cells + product 100µM, no stimulation, contact time 10 h): <100 cpm
Production de Reverse Transcriptase Coups par minute (cpm) ([2]; Tableau II, U1 cells + product 100µM, no stimulation, contact time 0,5 h): env.100 cpm
Production de Reverse Transcriptase Coups par minute (cpm) ([2]; Tableau II, U1 cells + product 100µM, no stimulation, contact time 2 h): env.100 cpm
Production de Reverse Transcriptase Coups par minute (cpm) ([2]; Tableau II, U1 cells + product 100µM, no stimulation, contact time 7 h): env.100 cpm
Production de Reverse Transcriptase Coups par minute (cpm) ([2]; Tableau II, U1 cells + product 100µM, no stimulation, contact time 10 h): <100 cpm
Production de Reverse Transcriptase Coups par minute (cpm) ([2]; Tableau III, U1 cells + product 100µM, no stimulation, contact time 0,5 h): 180 cpm
Production de Reverse Transcriptase Coups par minute (cpm) ([2]; Tableau III, U1 cells + product 100µM, no stimulation, contact time 2 h): 150 cpm
Production de Reverse Transcriptase Coups par minute (cpm) ([2]; Tableau III, U1 cells + product 100µM, no stimulation, contact time 7 h): 180 cpm
Production de Reverse Transcriptase Coups par minute (cpm) ([2]; Tableau III, U1 cells + product 100µM, no stimulation, contact time 10 h): 160 cpm
Production de Reverse Transcriptase Coups par minute (cpm) ([2]; U1 cells + product 100µM + GM-CSF (100U) + IL6 (100U), contact time before stimulation 0,5 h): 200 cpm
Production de Reverse Transcriptase Coups par minute (cpm) ([2]; U1 cells + product 100µM + GM-CSF (100U) + IL6 (100U), contact time before stimulation 2 h): 180 cpm
Production de Reverse Transcriptase Coups par minute (cpm) ([2]; U1 cells + product 100µM + GM-CSF (100U) + IL6 (100U), contact time before stimulation 7 h): 170 cpm
Production de Reverse Transcriptase Coups par minute (cpm) ([2]; U1 cells + product 100µM + GM-CSF (100U) + IL6 (100U), contact time before stimulation 10 h): 180 cpm
Production de Reverse Transcriptase Coups par minute (cpm) ([2]; U1 cells + product 100µM + PMA (10^-7), contact time before stimulation 0,5 h): 4700 cpm
Production de Reverse Transcriptase Coups par minute (cpm) ([2]; U1 cells + product 100µM + PMA (10^-7), contact time before stimulation 2 h): 1900 cpm
Production de Reverse Transcriptase Coups par minute (cpm) ([2]; U1 cells + product 100µM + PMA (10^-7), contact time before stimulation 7 h): 1900 cpm
Production de Reverse Transcriptase Coups par minute (cpm) ([2]; U1 cells + product 100µM + PMA (10^-7), contact time before stimulation 10 h): 900 cpm
Production de Reverse Transcriptase Coups par minute (cpm) ([2]; U1 cells + product 100µM + TNFα(100U), contact time before stimulation 0,5 h): 300 cpm
Production de Reverse Transcriptase Coups par minute (cpm) ([2]; U1 cells + product 100µM + TNFα(100U), contact time before stimulation 2 h): 200 cpm
Production de Reverse Transcriptase Coups par minute (cpm) ([2]; U1 cells + product 100µM + TNFα(100U), contact time before stimulation 7 h): 180 cpm
Production de Reverse Transcriptase Coups par minute (cpm) ([2]; U1 cells + product 100µM + TNFα(100U), contact time before stimulation 10 h): env.100 cpm
effet inhibiteur de la réplication du HIV-1 ([2]; pretreatment 30 minutes to 24 heures before stimulation by TNF, PMA or GM-CSF + II-6): n'affecte pas l'effet inhibiteur
viabilité des cellules [3]: sans effet
